This note sets out measurements from US20260007684A1, “AMIDE DERIVATIVES FOR INHIBITING NLRP3 AND USES THEREOF” (Ventus Therapeutics U.S., Inc., priority 2023, published 2026).

T1 sequence (Q96P20 whole entry): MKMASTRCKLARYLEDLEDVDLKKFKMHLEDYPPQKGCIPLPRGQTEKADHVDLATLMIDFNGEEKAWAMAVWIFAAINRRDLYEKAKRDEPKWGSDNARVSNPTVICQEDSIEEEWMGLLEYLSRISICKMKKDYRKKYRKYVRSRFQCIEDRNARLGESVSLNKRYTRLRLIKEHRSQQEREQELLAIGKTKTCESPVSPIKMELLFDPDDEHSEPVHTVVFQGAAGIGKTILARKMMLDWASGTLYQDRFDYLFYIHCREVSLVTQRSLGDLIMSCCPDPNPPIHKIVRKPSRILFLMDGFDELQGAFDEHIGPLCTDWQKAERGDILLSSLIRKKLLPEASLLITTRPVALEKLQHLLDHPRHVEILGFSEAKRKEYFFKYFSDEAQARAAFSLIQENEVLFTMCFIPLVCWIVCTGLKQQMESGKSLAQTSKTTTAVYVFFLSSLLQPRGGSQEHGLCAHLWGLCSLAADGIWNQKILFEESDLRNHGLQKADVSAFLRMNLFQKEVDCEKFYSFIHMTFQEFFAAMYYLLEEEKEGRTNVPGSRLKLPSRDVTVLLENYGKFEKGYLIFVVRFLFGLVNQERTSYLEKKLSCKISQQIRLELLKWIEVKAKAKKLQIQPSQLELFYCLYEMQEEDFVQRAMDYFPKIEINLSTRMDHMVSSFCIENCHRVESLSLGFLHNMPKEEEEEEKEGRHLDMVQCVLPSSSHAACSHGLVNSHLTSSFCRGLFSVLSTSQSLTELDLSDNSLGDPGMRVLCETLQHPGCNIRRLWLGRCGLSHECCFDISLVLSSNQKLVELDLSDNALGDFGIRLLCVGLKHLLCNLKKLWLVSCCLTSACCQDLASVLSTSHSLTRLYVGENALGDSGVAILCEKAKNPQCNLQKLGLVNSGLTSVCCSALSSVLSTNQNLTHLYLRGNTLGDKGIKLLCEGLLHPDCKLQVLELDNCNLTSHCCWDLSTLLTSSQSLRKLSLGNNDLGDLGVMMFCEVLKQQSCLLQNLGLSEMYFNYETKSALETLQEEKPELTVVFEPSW

One test concerns the target T1, human NLRP3 (Homo sapiens (Human), UniProt Q96P20). Kind of test: Human PBMC NLRP3 Assay (LPS priming, ATP stimulation, cytokine measurement). The class given is cell-based. To be noted: human PBMC, LPS priming, ATP stimulation; read-out: PBMC IC50.
`O=C(N[C@@H]1CCCN(c2nnn[nH]2)C1)C1(c2ccc(Cl)cc2F)CC1` [Compound 105, (R)-N-(1-(1H-tetrazol-5-yl)piperidin-3-yl)-1-(4-chloro-2-fluorophenyl)cyclopropane-1-carboxamide]: the IC50 was more than 0.5 µM.
Still for that read-out and setting: next, `O=C(N[C@@H]1CC[C@H]2CC[C@@H]1N2c1nnn[nH]1)C1(c2ccc(OC(F)F)cc2)CC1` [Compound 106, N-((1S,2R,5S)-8-(1H-tetrazol-5-yl)-8-azabicyclo[3.2.1]octan-2-yl)-1-(4-(difluoromethoxy)phenyl)cyclopropane-1-carboxamide]: more than 0.5 µM.

The test is the same for the next values; noted with them: read-out: PBMC IC50.
For `Cn1nnnc1N1CCC[C@@H](NC(=O)C2(c3ccc(Cl)cc3)CC2)C1` [Comparative Example F, (R)-1-(4-chlorophenyl)-N-(1-(1-methyl-1H-tetrazol-5-yl)piperidin-3-yl)cyclopropane-1-carboxamide, reference compound], the IC50 was 8.4 µM.
The same measure, in the same setting: with `O=C(N[C@@H]1CCCN(c2nnn[nH]2)C1)c1ccc(Cl)cc1` [Comparative Example G, (R)-N-(1-(1H-tetrazol-5-yl)piperidin-3-yl)-4-chlorobenzamide, reference compound] the figure was more than 100 µM; with `O=C(Cc1ccc(Cl)cc1)N[C@@H]1CCCN(c2nnn[nH]2)C1` [Comparative Example H, (R)-N-(1-(1H-tetrazol-5-yl)piperidin-3-yl)-2-(4-chlorophenyl)acetamide, reference compound], 10.5 µM; with `O=C(N[C@@H]1CCCN(c2ccccc2)C1)c1ccc(Cl)cc1` [Comparative Example J1, (R)-4-chloro-N-(1-phenylpiperidin-3-yl)benzamide, reference compound], more than 100 µM.
As to `O=C(N[C@H]1CCCN(c2ccccc2)C1)c1ccc(Cl)cc1` [Comparative Example J2, (S)-4-chloro-N-(1-phenylpiperidin-3-yl)benzamide, reference compound], the IC50 is more than 100 µM.
Same read-out and setting: next, `O=C(N[C@@H]1CCCN(c2nnn[nH]2)C1)C1(c2ccc(Cl)cc2F)CC1` [Compound 105, (R)-N-(1-(1H-tetrazol-5-yl)piperidin-3-yl)-1-(4-chloro-2-fluorophenyl)cyclopropane-1-carboxamide]: 0.85 µM.

The same test, now with this note: relative to Compound 10A.
With `O=C(N[C@@H]1CCCN(c2nnn[nH]2)C1)C1(c2ccc(Cl)cc2F)CC1` [Compound 105, (R)-N-(1-(1H-tetrazol-5-yl)piperidin-3-yl)-1-(4-chloro-2-fluorophenyl)cyclopropane-1-carboxamide], the “fold increase in potency as measured by PBMC IC50” value turned out to be 2.5 fold.

The next test deals with T1, human NLRP3. Kind of test: Scintillation Proximity (SPA) NLRP3 Assay: displacement of 3H-MCC950. The class given is binding. The note with it: SPA IC50, displacement of 3H-MCC950. A general note: SPA uses beads or plates that emit light when radiolabelled molecules are held near them.
In turn, `C[C@@H]1C[C@@H]2CC[C@H]([C@@H](NC(=O)C3(c4ccc(C(F)(F)F)cc4)CC3)C1)N2c1nnn[nH]1` [104F*, N-((1R,2S,4S,6S)-4-methyl-9-(1H-tetrazol-5-yl)-9-azabicyclo[4.2.1]nonan-2-yl)-1-(4-(trifluoromethyl)phenyl)cyclopropane-1-carboxamide] came in with an IC50 of 10 to 50 µM.
Still for that read-out and setting: next, `C[C@H]1C[C@H]2CC[C@@H]([C@H](NC(=O)C3(c4ccc(C(F)(F)F)cc4)CC3)C1)N2c1nnn[nH]1` [104G*, N-((1S,2R,4R,6R)-4-methyl-9-(1H-tetrazol-5-yl)-9-azabicyclo[4.2.1]nonan-2-yl)-1-(4-(trifluoromethyl)phenyl)cyclopropane-1-carboxamide]: 50 to 100 µM; `C[C@H]1C[C@H]2CC[C@@H]([C@@H](NC(=O)C3(c4ccc(C(F)(F)F)cc4)CC3)C1)N2c1nnn[nH]1` [104H*, N-((1S,2S,4R,6R)-4-methyl-9-(1H-tetrazol-5-yl)-9-azabicyclo[4.2.1]nonan-2-yl)-1-(4-(trifluoromethyl)phenyl)cyclopropane-1-carboxamide]: 50 to 100 µM.

The same test, now with this note: displacement of 3H-MCC950; read-out: SPA IC50.
On to `O=C(N[C@H]1CCCN(c2nnn[nH]2)C1)C1(c2ccc(Cl)cc2)CC1` [Compound 10B, (S)—N-(1-(1H-tetrazol-5-yl)piperidin-3-yl)-1-(4-chlorophenyl)cyclopropane-1-carboxamide], for which the IC50 was more than 100 µM.
On the same count and under the same terms, next, `C[C@H]1C[C@@H](NC(=O)C2(c3ccc(C(F)(F)F)nc3O)CC2)CN(c2nnn[nH]2)C1` [Compound 24A, 1-(2-hydroxy-6-(trifluoromethyl)pyridin-3-yl)-N-((3R,5S)-5-methyl-1-(1H-tetrazol-5-yl)piperidin-3-yl)cyclopropane-1-carboxamide]: 1 to 10 µM.
Consider `C[C@H]1C[C@@H](NC(=O)C2(c3cnc(C(F)(F)F)cc3O)CC2)CN(c2nnn[nH]2)C1` [Compound 26A, 1-(4-hydroxy-6-(trifluoromethyl)pyridin-3-yl)-N-((3R,5S)-5-methyl-1-(1H-tetrazol-5-yl)piperidin-3-yl)cyclopropane-1-carboxamide], for which the IC50 fell in the range of 1 to 10 µM.
Same read-out and setting: with `C[C@@H]1[C@H](NC(=O)C2(c3ccc(Cl)cc3)CC2)CCCN1c1nnn[nH]1` [Compound 40A, 1-(4-chlorophenyl)-N-[(2R,3R)-2-methyl-1-(1H-tetrazol-5-yl)-3-piperidyl]cyclopropanecarboxamide] the figure was more than 100 µM; with `C[C@H]1[C@H](NC(=O)C2(c3ccc(Cl)cc3)CC2)CCCN1c1nnn[nH]1` [Compound 40C, 1-(4-chlorophenyl)-N-[(2S,3R)-2-methyl-1-(1H-tetrazol-5-yl)-3-piperidyl]cyclopropanecarboxamide], more than 100 µM.
With `C[C@@H]1CC[C@@H](NC(=O)C2(c3ccc(Cl)cc3)CC2)CN1c1nnn[nH]1` [Compound 41C, 1-(4-chlorophenyl)-N-[(3R,6R)-6-methyl-1-(1H-tetrazol-5-yl)-3-piperidyl]cyclopropanecarboxamide], the IC50 was more than 100 µM.
Still for that read-out and setting: with `O=C(N[C@@H]1C[C@H](F)CN(c2nnn[nH]2)C1)C1(c2ccc(Cl)cc2)CC1` [Compound 44A, 1-(4-chlorophenyl)-N-[(3R,5S)-5-fluoro-1-(1H-tetrazol-5-yl)-3-piperidyl]cyclopropanecarboxamide] the figure was more than 100 µM.
As to `O=C(N[C@@H]1C[C@@H](F)CN(c2nnn[nH]2)C1)C1(c2ccc(Cl)cc2)CC1` [Compound 44C, 1-(4-chlorophenyl)-N-[(3R,5R)-5-fluoro-1-(1H-tetrazol-5-yl)-3-piperidyl]cyclopropanecarboxamide], the half-maximal inhibitory concentration (IC50) lay in the range of 10 to 50 µM.
Same read-out and setting: with `C[C@@H]1C[C@@H](NC(=O)C2(c3ccc(Cl)cc3)CC2)CN(c2nnn[nH]2)C1` [Compound 46C, 1-(4-chlorophenyl)-N-[(3R,5R)-5-methyl-1-(1H-tetrazol-5-yl)-3-piperidyl]cyclopropanecarboxamide] the figure was 10 to 50 µM; with `C[C@@H]1CCN(c2nnn[nH]2)C[C@@H]1NC(=O)C1(c2ccc(Cl)cc2)CC1` [Compound 49A, 1-(4-chlorophenyl)-N-[(3R,4R)-4-methy1-1-(1H-tetrazol-5-yl)-3-piperidyl]cyclopropanecarboxamide], more than 100 µM; with `O=C(N[C@H]1CN(c2nnn[nH]2)CC[C@H]1F)C1(c2ccc(Cl)cc2)CC1` [Compound 50A, 1-(4-chlorophenyl)-N-[(3S,4R)-4-fluoro-1-(1H-tetrazol-5-yl)-3-piperidyl]cyclopropanecarboxamide], 10 to 50 µM.
Same read-out and setting: next, `O=C(N[C@H]1CN(c2nnn[nH]2)CC[C@@H]1F)C1(c2ccc(Cl)cc2)CC1` [Compound 50C, 1-(4-chlorophenyl)-N-[(3S,4S)-4-fluoro-1-(1H-tetrazol-5-yl)-3-piperidyl]cyclopropanecarboxamide]: 10 to 50 µM.

Staying with this test, now noted: read-out: SPA IC50.
Consider `Cn1nnnc1-c1cccc(NC(=O)C2(c3ccc(Cl)cc3)CC2)c1` [Comparative Example E1, 1-(4-chlorophenyl)-N-(3-(1-methyl-1H-tetrazol-5-yl)phenyl)cyclopropane-1-carboxamide, reference compound], for which the IC50 was more than 500 µM.
Same read-out and setting: next, `Cn1nnc(-c2cccc(NC(=O)C3(c4ccc(Cl)cc4)CC3)c2)n1` [Comparative Example E2, 1-(4-chlorophenyl)-N-(3-(2-methyl-2H-tetrazol-5-yl)phenyl)cyclopropane-1-carboxamide, reference compound]: more than 500 µM.

By IC50 is commonly meant the point on the concentration scale where inhibition reaches its midpoint.
